Test results taken from ChEMBL document CHEMBL1138371, “Discovery of low nanomolar non-hydroxamate inhibitors of tumor necrosis factor-alpha converting enzyme (TACE)” (Bioorg Med Chem Lett, 2007).
pIC50, pKi: −log10 of the molar value.

Tests used:
Stromelysin-1 = Stromelysin-1 (Homo sapiens, UniProt P08254); assay: Inhibition of MMP3
[1] = molecular target: Macrophage metalloelastase (Homo sapiens, UniProt P39900); assay: Inhibition of MMP12
Interstitial collagenase = molecular target: T1, Interstitial collagenase (Homo sapiens, UniProt P03956); assay: Inhibition of MMP1
T1 sequence (P03956 whole entry): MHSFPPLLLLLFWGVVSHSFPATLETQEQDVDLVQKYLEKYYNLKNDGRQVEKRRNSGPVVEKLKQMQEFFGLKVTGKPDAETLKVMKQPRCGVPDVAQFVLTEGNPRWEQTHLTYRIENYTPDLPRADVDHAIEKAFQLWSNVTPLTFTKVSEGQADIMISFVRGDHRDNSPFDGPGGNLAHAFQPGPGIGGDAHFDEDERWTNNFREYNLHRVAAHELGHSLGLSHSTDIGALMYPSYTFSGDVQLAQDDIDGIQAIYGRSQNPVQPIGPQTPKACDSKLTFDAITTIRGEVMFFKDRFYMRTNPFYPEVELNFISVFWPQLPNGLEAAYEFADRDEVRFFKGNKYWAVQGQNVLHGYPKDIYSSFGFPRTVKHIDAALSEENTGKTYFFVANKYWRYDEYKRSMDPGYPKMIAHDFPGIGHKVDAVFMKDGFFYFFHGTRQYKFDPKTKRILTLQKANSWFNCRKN

Matrilysin = molecular target: T2, Matrilysin (Homo sapiens, UniProt P09237); assay: Inhibition of MMP7
T2 sequence (P09237 whole entry): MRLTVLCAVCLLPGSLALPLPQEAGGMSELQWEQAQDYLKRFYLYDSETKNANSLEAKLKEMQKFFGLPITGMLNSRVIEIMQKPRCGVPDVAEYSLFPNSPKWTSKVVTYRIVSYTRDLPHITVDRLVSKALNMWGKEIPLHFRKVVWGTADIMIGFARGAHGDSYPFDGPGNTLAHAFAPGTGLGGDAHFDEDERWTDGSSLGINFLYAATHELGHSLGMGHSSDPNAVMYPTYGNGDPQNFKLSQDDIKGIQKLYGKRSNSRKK

Collagenase 3 = Collagenase 3 (Homo sapiens, UniProt P45452); assay: Inhibition of MMP13
[2] = molecular target: Disintegrin and metalloproteinase domain-containing protein 17 (Sus scrofa, UniProt O77636); assay: Inhibition of porcine TACE
[3] = molecular target: Matrix metalloproteinase-9 (Homo sapiens, UniProt P14780); assay: Inhibition of MMP9
[4] = molecular target: 72 kDa type IV collagenase (Homo sapiens, UniProt P08253); assay: Inhibition of MMP2
Homo sapiens = organism: Homo sapiens; assay: Inhibition of aggrecanase at 1 uM

Sequence of Stromelysin-1 (P08254 whole entry): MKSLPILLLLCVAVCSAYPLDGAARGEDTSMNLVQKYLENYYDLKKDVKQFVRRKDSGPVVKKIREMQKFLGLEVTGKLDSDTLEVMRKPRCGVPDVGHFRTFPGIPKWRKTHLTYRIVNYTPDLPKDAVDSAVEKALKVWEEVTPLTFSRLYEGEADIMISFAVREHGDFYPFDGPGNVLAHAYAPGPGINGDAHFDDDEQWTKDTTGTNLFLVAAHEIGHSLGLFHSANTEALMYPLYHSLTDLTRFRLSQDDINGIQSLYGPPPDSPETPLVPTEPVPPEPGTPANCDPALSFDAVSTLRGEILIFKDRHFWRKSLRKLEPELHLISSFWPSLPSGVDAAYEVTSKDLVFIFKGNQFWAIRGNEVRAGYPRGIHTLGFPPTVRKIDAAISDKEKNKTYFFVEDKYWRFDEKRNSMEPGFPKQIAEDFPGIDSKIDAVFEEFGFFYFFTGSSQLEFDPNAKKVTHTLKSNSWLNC
Sequence of 72 kDa type IV collagenase (P08253 whole entry): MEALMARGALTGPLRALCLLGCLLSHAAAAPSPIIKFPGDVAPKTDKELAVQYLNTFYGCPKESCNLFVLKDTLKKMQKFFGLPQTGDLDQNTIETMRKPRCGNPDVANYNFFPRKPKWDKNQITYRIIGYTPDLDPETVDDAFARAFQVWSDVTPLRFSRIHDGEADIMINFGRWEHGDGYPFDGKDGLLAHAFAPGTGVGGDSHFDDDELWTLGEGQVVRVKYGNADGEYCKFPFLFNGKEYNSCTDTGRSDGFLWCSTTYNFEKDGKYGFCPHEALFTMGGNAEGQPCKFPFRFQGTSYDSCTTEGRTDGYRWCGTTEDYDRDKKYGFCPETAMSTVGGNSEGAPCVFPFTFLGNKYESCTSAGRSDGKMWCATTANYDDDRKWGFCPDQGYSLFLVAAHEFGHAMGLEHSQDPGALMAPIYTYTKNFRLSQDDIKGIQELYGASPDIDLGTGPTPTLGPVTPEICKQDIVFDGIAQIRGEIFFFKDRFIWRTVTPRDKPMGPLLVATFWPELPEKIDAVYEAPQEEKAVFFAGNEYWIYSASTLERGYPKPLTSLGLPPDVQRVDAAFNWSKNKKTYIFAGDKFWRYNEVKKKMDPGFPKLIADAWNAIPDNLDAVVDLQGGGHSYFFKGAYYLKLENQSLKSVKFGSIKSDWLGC
Sequence of Disintegrin and metalloproteinase domain-containing protein 17 (O77636 whole entry, the tested form may be a part): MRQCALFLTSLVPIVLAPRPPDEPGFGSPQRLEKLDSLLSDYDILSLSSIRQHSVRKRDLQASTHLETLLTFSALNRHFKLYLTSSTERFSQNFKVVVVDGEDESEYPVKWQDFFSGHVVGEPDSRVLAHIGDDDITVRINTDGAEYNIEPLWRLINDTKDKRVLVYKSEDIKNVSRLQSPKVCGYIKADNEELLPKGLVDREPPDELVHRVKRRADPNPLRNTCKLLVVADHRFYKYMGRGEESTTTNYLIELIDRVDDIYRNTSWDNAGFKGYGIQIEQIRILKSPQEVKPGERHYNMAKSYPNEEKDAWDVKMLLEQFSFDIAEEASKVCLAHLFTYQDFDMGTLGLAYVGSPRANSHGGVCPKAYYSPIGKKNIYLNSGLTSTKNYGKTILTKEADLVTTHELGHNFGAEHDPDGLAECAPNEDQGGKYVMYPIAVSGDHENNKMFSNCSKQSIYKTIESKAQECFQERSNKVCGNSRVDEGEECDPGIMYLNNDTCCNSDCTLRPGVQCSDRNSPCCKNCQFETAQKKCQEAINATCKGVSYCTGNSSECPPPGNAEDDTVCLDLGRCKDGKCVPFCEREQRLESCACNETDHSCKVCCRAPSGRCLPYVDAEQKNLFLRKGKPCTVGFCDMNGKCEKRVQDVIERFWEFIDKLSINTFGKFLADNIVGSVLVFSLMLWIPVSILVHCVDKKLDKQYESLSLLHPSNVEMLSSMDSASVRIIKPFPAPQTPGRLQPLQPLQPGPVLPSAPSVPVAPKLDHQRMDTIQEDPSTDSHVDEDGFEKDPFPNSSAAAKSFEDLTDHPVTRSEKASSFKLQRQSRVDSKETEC
Sequence of Matrix metalloproteinase-9 (P14780 whole entry): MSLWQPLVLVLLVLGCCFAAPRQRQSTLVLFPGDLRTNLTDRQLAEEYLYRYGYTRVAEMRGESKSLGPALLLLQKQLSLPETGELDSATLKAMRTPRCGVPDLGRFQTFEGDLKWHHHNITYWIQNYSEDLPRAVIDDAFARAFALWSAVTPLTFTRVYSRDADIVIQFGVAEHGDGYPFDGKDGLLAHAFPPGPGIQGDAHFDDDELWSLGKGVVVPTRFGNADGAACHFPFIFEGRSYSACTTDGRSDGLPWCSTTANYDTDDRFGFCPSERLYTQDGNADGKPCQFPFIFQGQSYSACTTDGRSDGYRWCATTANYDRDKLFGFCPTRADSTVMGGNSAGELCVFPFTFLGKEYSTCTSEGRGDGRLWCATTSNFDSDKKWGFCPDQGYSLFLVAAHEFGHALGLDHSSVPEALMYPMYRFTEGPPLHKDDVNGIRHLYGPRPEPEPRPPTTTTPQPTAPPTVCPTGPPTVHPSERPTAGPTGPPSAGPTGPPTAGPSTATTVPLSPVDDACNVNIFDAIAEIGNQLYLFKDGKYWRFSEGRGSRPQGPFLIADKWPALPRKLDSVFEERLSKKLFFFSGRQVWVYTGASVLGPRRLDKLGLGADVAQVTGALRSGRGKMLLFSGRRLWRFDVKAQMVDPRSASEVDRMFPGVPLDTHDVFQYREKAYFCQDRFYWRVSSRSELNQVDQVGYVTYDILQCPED
Sequence of Macrophage metalloelastase (P39900 whole entry): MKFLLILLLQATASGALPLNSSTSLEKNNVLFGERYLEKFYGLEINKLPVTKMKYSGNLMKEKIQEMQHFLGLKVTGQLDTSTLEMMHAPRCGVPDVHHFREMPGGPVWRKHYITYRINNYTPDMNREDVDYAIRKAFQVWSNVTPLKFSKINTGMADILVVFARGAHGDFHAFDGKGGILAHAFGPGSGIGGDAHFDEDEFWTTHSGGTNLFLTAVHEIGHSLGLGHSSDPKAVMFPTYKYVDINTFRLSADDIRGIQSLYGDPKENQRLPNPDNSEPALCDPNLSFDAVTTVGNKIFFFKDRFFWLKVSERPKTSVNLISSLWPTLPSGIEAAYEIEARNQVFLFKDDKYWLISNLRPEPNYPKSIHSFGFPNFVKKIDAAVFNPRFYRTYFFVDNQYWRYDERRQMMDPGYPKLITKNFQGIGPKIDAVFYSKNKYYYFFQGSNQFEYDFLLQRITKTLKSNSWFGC

Cc1cc(COc2ccc(C(=O)NCC3(C)C(=O)NC(=O)NC3=O)cc2)c2ccccc2n1
pKi (Stromelysin-1): < 5.35
pKi [1]: < 5.22
pKi (Interstitial collagenase): < 5.31
pKi (Matrilysin): < 5.20
pKi (Collagenase 3): < 5.30
pIC50 [2]: 7.59
pKi [3]: < 5.67
pKi [4]: < 5.48
inhibition (Homo sapiens): 0%
